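Values below derive from 48-hour exposures of cells grown in 96-well plates, with endpoints linearly interpolated between the two concentrations bracketing the appropriate inhibition level. The concentration for full growth arrest is given as TGI.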
Columns and labels:
Test in all cases: inhibition of tumour cell growth, NCI panel, 48 h
MCF7 breast = tested on: MCF7 breast
HCT-15 colon = tested on: HCT-15 colon
SF-268 CNS = tested on: SF-268 CNS
MDA-MB-231 breast = tested on: MDA-MB-231 breast
NCI-H23 lung = tested on: NCI-H23 lung
786-0 renal = tested on: 786-0 renal
MDA-N = tested on: MDA-N
CAKI-1 renal = tested on: CAKI-1 renal
HL-60(TB) leukemia = tested on: HL-60(TB) leukemia
UO-31 renal = tested on: UO-31 renal
BT-549 breast = tested on: BT-549 breast
U251 CNS = tested on: U251 CNS
TK-10 renal = tested on: TK-10 renal
HT29 colon = tested on: HT29 colon
OVCAR-3 ovarian = tested on: OVCAR-3 ovarian
NCI-H522 lung = tested on: NCI-H522 lung
SF-539 CNS = tested on: SF-539 CNS
HS 578T breast = tested on: HS 578T breast
RXF 393 renal = tested on: RXF 393 renal
KM12 colon = tested on: KM12 colon
HCT-116 colon = tested on: HCT-116 colon
M14 melanoma = tested on: M14 melanoma
MALME-3M melanoma = tested on: MALME-3M melanoma
SW-620 colon = tested on: SW-620 colon
SK-MEL-2 melanoma = tested on: SK-MEL-2 melanoma
EKVX NSCLC = tested on: EKVX NSCLC
HOP-92 NSCLC = tested on: HOP-92 NSCLC
NCI/ADR-RES ovarian = tested on: NCI/ADR-RES ovarian
COLO 205 colon = tested on: COLO 205 colon
UACC-257 melanoma = tested on: UACC-257 melanoma
SK-MEL-5 melanoma = tested on: SK-MEL-5 melanoma
SR leukemia = tested on: SR leukemia
SN12C renal = tested on: SN12C renal
A549 NSCLC = tested on: A549 NSCLC
HOP-62 NSCLC = tested on: HOP-62 NSCLC
UACC-62 melanoma = tested on: UACC-62 melanoma
IGROV1 ovarian = tested on: IGROV1 ovarian
OVCAR-8 ovarian = tested on: OVCAR-8 ovarian
SK-OV-3 ovarian = tested on: SK-OV-3 ovarian
K-562 leukemia = tested on: K-562 leukemia
T-47D breast = tested on: T-47D breast
ACHN renal = tested on: ACHN renal
PC-3 prostate = tested on: PC-3 prostate
NCI-H460 lung = tested on: NCI-H460 lung
DU-145 prostate = tested on: DU-145 prostate
OVCAR-5 ovarian = tested on: OVCAR-5 ovarian
MOLT-4 leukemia = tested on: MOLT-4 leukemia
SNB-19 CNS = tested on: SNB-19 CNS
LOX IMVI melanoma = tested on: LOX IMVI melanoma
CCRF-CEM leukemia = tested on: CCRF-CEM leukemia
SF-295 CNS = tested on: SF-295 CNS
SK-MEL-28 melanoma = tested on: SK-MEL-28 melanoma
RPMI-8226 leukemia = tested on: RPMI-8226 leukemia
SNB-75 CNS = tested on: SNB-75 CNS
A498 renal = tested on: A498 renal
MDA-MB-435 = tested on: MDA-MB-435
HCC-2998 colon = tested on: HCC-2998 colon
NCI-H226 lung = tested on: NCI-H226 lung
OVCAR-4 ovarian = tested on: OVCAR-4 ovarian

Question: What does the source list for `N#CC1=C(N)C(C#N)(C#N)C(c2ccc(F)cc2)C=C1C1CC1` (centres undefined)?
Answer: TGI (MCF7 breast): 17.1 µM; TGI (HCT-15 colon): 22.3 µM; TGI (SF-268 CNS): 16 µM; TGI (MDA-MB-231 breast): 33.1 µM; TGI (NCI-H23 lung): 13.8 µM; TGI (786-0 renal): 21.9 µM; TGI (MDA-N): 6.67 µM; TGI (CAKI-1 renal): 28.2 µM; TGI (HL-60(TB) leukemia): 34.8 µM; TGI (UO-31 renal): 27.2 µM; TGI (BT-549 breast): 12.5 µM; TGI (U251 CNS): 18.2 µM; TGI (TK-10 renal): 44 µM; TGI (HT29 colon): 22.8 µM; TGI (OVCAR-3 ovarian): 18.1 µM; TGI (NCI-H522 lung): 14.1 µM; TGI (SF-539 CNS): 2.42 µM; TGI (HS 578T breast): > 100 µM; TGI (RXF 393 renal): 18.6 µM; TGI (KM12 colon): 16 µM; TGI (HCT-116 colon): 15.8 µM; TGI (M14 melanoma): 15.8 µM; TGI (MALME-3M melanoma): 26.8 µM; TGI (SW-620 colon): 56 µM; TGI (SK-MEL-2 melanoma): 19.4 µM; TGI (EKVX NSCLC): 75.4 µM; TGI (HOP-92 NSCLC): 27 µM; TGI (NCI/ADR-RES ovarian): 41.8 µM; TGI (COLO 205 colon): 24.9 µM; TGI (UACC-257 melanoma): 21.1 µM; TGI (SK-MEL-5 melanoma): 16.2 µM; TGI (SR leukemia): 12.9 µM; TGI (SN12C renal): 10.3 µM; TGI (A549 NSCLC): 41.7 µM; TGI (HOP-62 NSCLC): 25.8 µM; TGI (UACC-62 melanoma): 21.5 µM; TGI (IGROV1 ovarian): 25.5 µM; TGI (OVCAR-8 ovarian): 21.5 µM; TGI (SK-OV-3 ovarian): 30 µM; TGI (K-562 leukemia): 41.9 µM; TGI (T-47D breast): 29 µM; TGI (ACHN renal): 25.6 µM; TGI (PC-3 prostate): 21.8 µM; TGI (NCI-H460 lung): 17.6 µM; TGI (DU-145 prostate): 25.6 µM; TGI (OVCAR-5 ovarian): 34.5 µM; TGI (MOLT-4 leukemia): 25.5 µM; TGI (SNB-19 CNS): 27.9 µM; TGI (LOX IMVI melanoma): 14.5 µM; TGI (CCRF-CEM leukemia): 31.7 µM; TGI (SF-295 CNS): 25.8 µM; TGI (SK-MEL-28 melanoma): 39.3 µM; TGI (RPMI-8226 leukemia): 40.4 µM; TGI (SNB-75 CNS): 18.1 µM; TGI (A498 renal): 23.5 µM; TGI (MDA-MB-435): 12.4 µM; TGI (HCC-2998 colon): 25.4 µM

Question: Which TGI (NCI-H226 lung) does the source give for `Cc1ccc(S(=O)(=O)n2cncc2CO)cc1` here?
Answer: The TGI was > 100 µM.

Question: And the TGI (MCF7 breast)?
Answer: The TGI was > 100 µM.

Question: And the TGI (HCT-15 colon)?
Answer: Its TGI is > 100 µM.

Question: And the TGI (SF-268 CNS)?
Answer: Its TGI is > 100 µM.

Question: What about the TGI (MDA-MB-231 breast) of the same compound?
Answer: The TGI was > 100 µM.

Question: What about the TGI (NCI-H23 lung) of the same compound?
Answer: Its TGI is > 100 µM.

Question: What about the TGI (786-0 renal) of the same compound?
Answer: The TGI was > 100 µM.

Question: What about the TGI (MDA-N) of the same compound?
Answer: The TGI was > 100 µM.

Question: What about the TGI (CAKI-1 renal) of the same compound?
Answer: Its TGI is > 100 µM.

Question: And the TGI (OVCAR-4 ovarian)?
Answer: The TGI was > 100 µM.

Question: And the TGI (HL-60(TB) leukemia)?
Answer: Its TGI is > 100 µM.

Question: And the TGI (UO-31 renal)?
Answer: Its TGI is > 100 µM.

Question: And the TGI (BT-549 breast)?
Answer: Its TGI is > 100 µM.

Question: What about the TGI (U251 CNS) of the same compound?
Answer: The TGI was > 100 µM.

Question: What about the TGI (TK-10 renal) of the same compound?
Answer: Its TGI is > 100 µM.

Question: What about the TGI (HT29 colon) of the same compound?
Answer: Its TGI is > 100 µM.

Question: And the TGI (OVCAR-3 ovarian)?
Answer: The TGI was > 100 µM.

Question: What about the TGI (NCI-H522 lung) of the same compound?
Answer: The TGI was > 100 µM.

Question: And the TGI (SF-539 CNS)?
Answer: Its TGI is > 100 µM.

Question: What about the TGI (HS 578T breast) of the same compound?
Answer: The TGI was > 100 µM.

Question: What about the TGI (RXF 393 renal) of the same compound?
Answer: The TGI was > 100 µM.

Question: And the TGI (KM12 colon)?
Answer: The TGI was > 100 µM.

Question: What about the TGI (HCT-116 colon) of the same compound?
Answer: Its TGI is > 100 µM.

Question: And the TGI (M14 melanoma)?
Answer: Its TGI is > 100 µM.

Question: What about the TGI (MALME-3M melanoma) of the same compound?
Answer: Its TGI is > 100 µM.

Question: And the TGI (SW-620 colon)?
Answer: The TGI was > 100 µM.

Question: What about the TGI (SK-MEL-2 melanoma) of the same compound?
Answer: The TGI was > 100 µM.

Question: What about the TGI (EKVX NSCLC) of the same compound?
Answer: The TGI was > 100 µM.

Question: And the TGI (NCI/ADR-RES ovarian)?
Answer: The TGI was > 100 µM.

Question: And the TGI (COLO 205 colon)?
Answer: The TGI was > 100 µM.

Question: And the TGI (UACC-257 melanoma)?
Answer: The TGI was > 100 µM.

Question: And the TGI (SK-MEL-5 melanoma)?
Answer: The TGI was > 100 µM.

Question: And the TGI (SR leukemia)?
Answer: Its TGI is > 100 µM.

Question: And the TGI (SN12C renal)?
Answer: The TGI was > 100 µM.

Question: What about the TGI (A549 NSCLC) of the same compound?
Answer: The TGI was > 100 µM.

Question: What about the TGI (HOP-62 NSCLC) of the same compound?
Answer: Its TGI is > 100 µM.

Question: What about the TGI (UACC-62 melanoma) of the same compound?
Answer: Its TGI is > 100 µM.

Question: What about the TGI (IGROV1 ovarian) of the same compound?
Answer: Its TGI is > 100 µM.

Question: What about the TGI (OVCAR-8 ovarian) of the same compound?
Answer: Its TGI is > 100 µM.

Question: And the TGI (SK-OV-3 ovarian)?
Answer: Its TGI is > 100 µM.

Question: And the TGI (K-562 leukemia)?
Answer: Its TGI is > 100 µM.

Question: And the TGI (T-47D breast)?
Answer: Its TGI is > 100 µM.

Question: What about the TGI (ACHN renal) of the same compound?
Answer: Its TGI is > 100 µM.

Question: And the TGI (PC-3 prostate)?
Answer: Its TGI is > 100 µM.

Question: And the TGI (NCI-H460 lung)?
Answer: Its TGI is > 100 µM.

Question: What about the TGI (DU-145 prostate) of the same compound?
Answer: Its TGI is > 100 µM.

Question: What about the TGI (OVCAR-5 ovarian) of the same compound?
Answer: Its TGI is > 100 µM.

Question: And the TGI (MOLT-4 leukemia)?
Answer: Its TGI is > 100 µM.

Question: What about the TGI (SNB-19 CNS) of the same compound?
Answer: The TGI was > 100 µM.

Question: And the TGI (LOX IMVI melanoma)?
Answer: Its TGI is > 100 µM.

Question: What about the TGI (CCRF-CEM leukemia) of the same compound?
Answer: Its TGI is > 100 µM.

Question: And the TGI (SF-295 CNS)?
Answer: Its TGI is > 100 µM.

Question: What about the TGI (SK-MEL-28 melanoma) of the same compound?
Answer: Its TGI is > 100 µM.

Question: And the TGI (RPMI-8226 leukemia)?
Answer: Its TGI is > 100 µM.

Question: What about the TGI (SNB-75 CNS) of the same compound?
Answer: The TGI was > 100 µM.

Question: What about the TGI (MDA-MB-435) of the same compound?
Answer: Its TGI is > 100 µM.

Question: And the TGI (HCC-2998 colon)?
Answer: Its TGI is > 100 µM.

From PubChem BioAssay (NCI)
